Laboratory results as given in patent US12304912B2, “Fused bicyclic RAF inhibitors and methods for use thereof” (Jazz Pharmaceuticals Ireland Limited, priority 2020, dated 2025).

Key:
HCT-116 cells = experiment: HCT-116 CellTiter-Glo 3D cell proliferation assay; assay type: cell-based; settings: Homo sapiens, HCT-116; HCT116 cells, 3D proliferation; read-out: 3D HCT116 pGI50 (converted)
Method: HCT-116 CellTiter-Glo 3D Cell Proliferation Assay
The human HCT-116 colorectal carcinoma cell line (ATCC CCL-247) endogenously expresses the KRAS^G13D mutation, which leads to enhanced survival and proliferative signaling. […] On the first day, HCT-116 cells were harvested, resuspended in growth medium (McCoys5A with Glutamax (Life Technologies 36600021) with 10% heat-inactivated fetal bovine serum (Sigma F9665)), and counted. Cells were plated in 100 μl per well in each well of a Corning 7007 96-well clear round bottom Ultra-Low Attachment plate (VWR 444-1020) to a final density of 1000 cells per well. Cells were seeded for pre- and post-treatment readouts. The cells were then incubated at 37° C. and 5% CO2 for 3 days (72 hours) to allow spheroid formation. After 72 hours, the plate seeded for a pre-treatment read was removed from the incubator to allow equilibration to room temperature for 30 minutes, before CellTitre-Glo® reagent was added to each well. The plates were incubated at room temperature for 5 minutes shaking at 300 rpm, followed by an incubation of 25 minutes on the benchtop before being read on the Envision reader (Perkin Elmer) as described below. On the same day, the cells plated for the post-treatment readout were dosed with compounds to produce a 9-point dose response, where the top concentration was 15 μM and following concentrations were at 1/2 log dilution intervals. These cells were subsequently incubated at 37° C. and 5% CO2 for another 4 days (96 hours). After 4 days, the plate was removed from the incubator to allow equilibration to room temperature for 30 minutes and treated with CellTitre Glo® reagent as stated above. […] The CellTitre Glo® reagent lyses the cells and contains luciferin and a luciferase (Ultra-Glo™ Recombinant Luciferase), which in the presence of ATP and oxygen can produce bioluminescence from luciferin. Therefore, plates were read on an EnVision reader (Perkin Elmer) and luminescence signals were recorded. Cell proliferation was determined on 4 days after dosing relative to the pre-treatment read. All data were analyzed using the Dotmatics or GraphPad Prism software packages. Inhibition of proliferation was assessed by determination of the GI50 value, which was defined as the concentration of compound required to decrease the level of cell proliferation by 50% when compared to DMSO control.

[1] = tested on: RAF dimers in HCT-116 cells; experiment: HCT-116 AlphaLISA SureFire pERK1/2 cellular assay (dimer); assay type: cell-based; settings: Homo sapiens, HCT-116; HCT116 cells, dimer, 1 hr; read-out: pERK HCT116 dimer (1 hr) plC50 (converted)
Procedure, shortened: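 HCT-116 (KRAS G13D) cells, 30,000/well, pretreated 1 h with 1 μM Encorafenib to induce RAF dimers, washed, then dosed 1 h at 37° C with compound (10-point, top 10 μM, 1/2 log steps) in growth medium. pERK1/2 (T202/Y204) measured by AlphaLISA SureFire; absolute IC50 versus DMSO control.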

WiDr cells = experiment: WiDr CellTiter-Glo 3D cell proliferation assay; assay type: cell-based; settings: Homo sapiens; WiDr cells, 3D proliferation; read-out: 3D WiDr pGI50 (converted)
[2] = Plasma protein binding assay, human plasma (hPPB); assay type: in vitro ADME; settings: 5 μM, equilibrium dialysis 4 hours at 37° C.
Procedure, shortened: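 Equilibrium dialysis of 5 μM compound in previously frozen human or mouse plasma against phosphate buffer, 4 h at 37 °C. Both chambers quantified by LC-MS/MS; % free = (1−((PC−PF)/PC))×100.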

Structure (SMILES) | GI50 (HCT-116 cells) | IC50 [1] | GI50 (WiDr cells) | hPPB (% free) [2]
O=C1CCc2c(Oc3ccc4c(c3)CC(c3nc(-c5cncc(C(F)F)c5)c[nH]3)CO4)ccnc2N1 (centres unmarked) [Compound 105, 5-[3-[4-[5-(difluoromethyl)-3-pyridyl]-1H-imidazol-2-yl]chroman-6-yl]oxy-3,4-dihydro-1H-1,8-naphthyridin-2-one] | 245 nM | 64.6 nM | 603 nM | 1.0 % free
Cc1cc(-c2c[nH]c(C3COc4ccc(Oc5ccnc6c5CCC(=O)N6)cc4C3)n2)n(C)n1 (centres unmarked) [Compound 106, 5-[3-[4-(2,5-dimethylpyrazol-3-yl)-1H-imidazol-2-yl]chroman-6-yl]oxy-3,4-dihydro-1H-1,8-naphthyridin-2-one] | 437 nM | 123 nM | 1550 nM | 2.4 % free
Cn1nc(C(F)(F)F)cc1-c1c[nH]c(C2COc3ccc(Oc4ccnc5c4CCC(=O)N5)cc3C2)n1 (centres unmarked) [Compound 107, 5-[3-[4-[2-methyl-5-(trifluoromethyl)pyrazol-3-yl]-1H-imidazol-2-yl]chroman-6-yl]oxy-3,4-dihydro-1H-1,8-naphthyridin-2-one] | 229 nM | 57.5 nM | 776 nM | 0.7 % free
Cc1ccc(-c2c[nH]c(C3COc4ccc(Oc5ccnc6c5CCC(=O)N6)cc4C3)n2)s1 (centres unmarked) [Compound 110] | 70.8 nM | 50.1 nM | 200 nM | 0.2 % free
CCc1cc(-c2c[nH]c(C3COc4ccc(Oc5ccnc6c5CCC(=O)N6)cc4C3)n2)n(C)n1 (centres unmarked) [Compound 111] | 316 nM | 107 nM | 1020 nM | 1.91 % free
CC(C)(C)CCc1c[nH]c(C2COc3ccc(Oc4ccnc5c4CCC(=O)N5)cc3C2)n1 (centres unmarked) [Compound 115, 5-[3-[4-(3,3-dimethylbutyl)-1H-imidazol-2-yl]chroman-6-yl]oxy-3,4-dihydro-1H-1,8-naphthyridin-2-one] | 67.6 nM | 105 nM | 38 nM | 0.3 % free
CC(C)CCc1c[nH]c(C2COc3ccc(Oc4ccnc5c4CCC(=O)N5)cc3C2)n1 (centres unmarked) [Compound 116] | 66.1 nM | 87.1 nM | 126 nM | 0.13 % free
Cc1cc(-c2c[nH]c(C3COc4ccc(Oc5ccnc6c5CCC(=O)N6)cc4C3)n2)ccn1 (centres unmarked) [Compound 117, 5-[3-[4-(2-methyl-4-pyridyl)-1H-imidazol-2-yl]chroman-6-yl]oxy-3,4-dihydro-1H-1,8-naphthyridin-2-one] | 214 nM | 110 nM | 708 nM | 2.6 % free
CCc1cc(-c2c[nH]c(C3COc4ccc(Oc5ccnc6c5CCC(=O)N6)cc4C3)n2)ccn1 (centres unmarked) [Compound 118, 5-[3-[4-(2-ethyl-4-pyridyl)-1H-imidazol-2-yl]chroman-6-yl]oxy-3,4-dihydro-1H-1,8-naphthyridin-2-one] | 398 nM | 148 nM | 1170 nM | 1.3 % free
COc1csc(-c2c[nH]c(C3COc4ccc(Oc5ccnc6c5CCC(=O)N6)cc4C3)n2)c1 (centres unmarked) [Compound 122, 5-[3-[5-(4-methoxy-2-thienyl)-1H-imidazol-2-yl]chroman-6-yl]oxy-3,4-dihydro-1H-1,8-naphthyridin-2-one] | 182 nM | 162 nM | 513 nM | 0.23 % free
COc1ccsc1-c1c[nH]c(C2COc3ccc(Oc4ccnc5c4CCC(=O)N5)cc3C2)n1 (centres unmarked) [Compound 123] | 40.7 nM | 58.9 nM | 53.7 nM | 0.23 % free
CCn1nc(C)cc1-c1c[nH]c(C2COc3ccc(Oc4ccnc5c4CCC(=O)N5)cc3C2)n1 (centres unmarked) [Compound 124, 5-[3-[4-(2-ethyl-5-methyl-pyrazol-3-yl)-1H-imidazol-2-yl]chroman-6-yl]oxy-3,4-dihydro-1H-1,8-naphthyridin-2-one] | 724 nM | 269 nM | 1450 nM | 2.7 % free
Cn1ncc2ccc(-c3c[nH]c(C4COc5ccc(Oc6ccnc7c6CCC(=O)N7)cc5C4)n3)cc21 (centres unmarked) [Compound 130, 5-[3-[4-(1-methylindazol-6-yl)-1H-imidazol-2-yl]chroman-6-yl]oxy-3,4-dihydro-1H-1,8-naphthyridin-2-one] | 617 nM | 166 nM | 1660 nM | 0.1 % free
O=C1CCc2c(Oc3ccc4c(c3)CC(c3nc(C5CCOCC5)c[nH]3)CO4)ccnc2N1 (centres unmarked) [Compound 132, 5-[3-(4-tetrahydropyran-4-yl-1H-imidazol-2-yl)chroman-6-yl]oxy-3,4-dihydro-1H-1,8-naphthyridin-2-one] | 661 nM | 427 nM | 1150 nM | 2.6 % free
O=C1CCc2c(Oc3ccc4c(c3)CC(c3nc5ccncc5[nH]3)CO4)ccnc2N1 (centres unmarked) [Compound 134, 5-[3-(3H-imidazo[4,5-c]pyridin-2-yl)chroman-6-yl]oxy-3,4-dihydro-1H-1,8-naphthyridin-2-one] | 15100 nM | 32.4 nM | 25700 nM | 6.1 % free
O=C(Nc1cc(Oc2ccc3c(c2)CC(c2nc(-c4ccccc4)c[nH]2)CO3)ccn1)C1CC1(F)F (centres unmarked) [Compound 137, 2,2-difluoro-N-[4-[3-(4-phenyl-1H-imidazol-2-yl)chroman-6-yl]oxy-2-pyridyl]cyclopropanecarboxamide] | 70.8 nM | 28.2 nM | 126 nM | 0.1 % free
c1ccc(-c2c[nH]c(C3COc4ccc(Oc5ccnc(Nc6ccccn6)c5)cc4C3)n2)cc1 (centres unmarked) [Compound 140, 4-[3-(4-phenyl-1H-imidazol-2-yl)chroman-6-yl]oxy-N-(2-pyridyl)pyridin-2-amine] | 1320 nM | 2040 nM | 1910 nM | <0.1 % free
Cc1c[nH]c(-c2cc(Oc3ccc4c(c3)CC(c3nc(-c5ccccc5)c[nH]3)CO4)ccn2)n1 (centres unmarked) [Compound 143, 2-(4-methyl-1H-imidazol-2-yl)-4-[3-(4-phenyl-1H-imidazol-2-yl)chroman-6-yl]oxy-pyridine] | 741 nM | 575 nM | 1510 nM | <0.1 % free
O=C(Cn1ccnc1)Nc1cc(Oc2ccc3c(c2)CC(c2nc(-c4ccccc4)c[nH]2)CO3)ccn1 (centres unmarked) [Compound 144] | 100 nM | 60.3 nM | 380 nM | 0.7 % free
O=C(CN1CC[C@@H](O)C1)Nc1cc(Oc2ccc3c(c2)CC(c2nc(-c4ccccc4)c[nH]2)CO3)ccn1 (some centres unmarked) [Compound 145] | 479 nM | 178 nM | 6310 nM | 0.4 % free
CN1CCN(CC(=O)Nc2cc(Oc3ccc4c(c3)CC(c3nc(-c5ccccc5)c[nH]3)CO4)ccn2)CC1 (centres unmarked) [Compound 146, 2-(4-methylpiperazin-1-yl)-N-[4-[3-(4-phenyl-1H-imidazol-2-yl)chroman-6-yl]oxy-2-pyridyl]acetamide] | 380 nM | 170 nM | 813 nM | 1.5 % free
CN1CCC(C(=O)Nc2cc(Oc3ccc4c(c3)CC(c3nc(-c5ccccc5)c[nH]3)CO4)ccn2)CC1 (centres unmarked) [Compound 147, 1-methyl-N-[4-[3-(4-phenyl-1H-imidazol-2-yl)chroman-6-yl]oxy-2-pyridyl]piperidine-4-carboxamide] | 1380 nM | 437 nM | 1380 nM | 0.5 % free
O=C(Nc1nccc(Oc2ccc3c(c2)CC(c2nc(-c4ccccc4)c[nH]2)CO3)n1)C1CC1 (centres unmarked) [Compound 148, N-[4-[3-(4-phenyl-1H-imidazol-2-yl)chroman-6-yl]oxypyrimidin-2-yl]cyclopropanecarboxamide] | 490 nM | 457 nM | 1200 nM | 0.9 % free
